Here are results for 48 molecules from patent publication US6583154B1, “Compounds and methods which modulate feeding behavior and related diseases” (Amgen Inc., priority 1998, dated 2003).

Where a name gives a salt, the structure may show the parent alone.

Consider `Cc1nc(N2CCc3ccccc3C2)c2sc(-c3ccccc3)cc2n1` (as salt: hydrochloride) (hydrate or solvate) [Example 221b, 2-Methyl-6-phenyl-4-[2-1,2,3,4-tetrahydroisoquinolyl)thiopheno[3,2-d]pyrimidine Hydrochloride Hydrate], for which the melting point lay in the range of 263 to 265 °C. As to `Cc1nc(N2CCCCC2)c2[nH]c(-c3ccc4c(c3)Cc3ccccc3-4)cc2n1.Cl` (hydrate or solvate) [Example 127, 6-Fluoren-2-yl-2-methyl-4-piperidylpyrrolo[3,2-d]pyrimidine Hydrochloride Hydrate], the melting point is more than 280 °C. In the case of `Cc1nc(N2CCCCC2)c2[nH]c(-c3ccccc3)c(F)c2n1.Cl`, the melting point was more than 280 °C. Under `Cc1nc(N2CCCCC2)c2[nH]c(C)cc2n1.Cl` (hydrate or solvate) [Example 104, 2,6-Dimethyl-4-piperidylpyrrolo[3,2-d]pyrimidine Hydrochloride Hydrate] stands 244 to 245.5 °C. In turn, `Cc1nc(N2CCCCC2)c2[nH]c(-c3cc(F)cc(F)c3)c(C)c2n1.Cl` (hydrate or solvate) came in with a melting point of 242 to 245 °C. As for `COc1nc(N2CCCCC2)c2[nH]c(-c3ccccc3)cc2n1` (as salt: hydrochloride) (hydrate or solvate), the melting point was 270 to 276 °C. Under `Cc1nc(N2CCCCC2)c2[nH]c(-c3cc(F)cc(F)c3)cc2n1.Cl` (hydrate or solvate) stands more than 280 °C; under `Cc1nc(NC[C@H]2CC[C@H](CNS(=O)(=O)c3cccc4ccccc34)CC2)c2[nH]c(-c3ccccc3)cc2n1` (as salt: hydrochloride) (hydrate or solvate) [Example 194, trans-[(4-{[(2-Methyl-6-phenylpyrrolo[2,3-e]pyrimidin-4-yl)amino]methyl}cyclohexyl)methyl](naphthylsulfonyl)amine Hydrochloride Hydrate], 165 to 170 °C; under `Cc1nc(N2CCCCC2)c2[nH]c(-c3cc(C(F)(F)F)cc(C(F)(F)F)c3)cc2n1.Cl` [Example 122], more than 280 °C. Under `Cc1nc(N2CC=CCC2)c2sc(-c3ccccc3)cc2n1` (as salt: hydrochloride) (hydrate or solvate) stands 279 to 281 °C; under `CC(=O)c1c(-c2ccccc2)[nH]c2c(N3CCCCC3)nc(C)nc12` [Example 49, 7-Acetyl-2-methyl-6-phenyl-4-piperidylpyrrolo[3,2-d]pyrimidine], 188 to 190 °C; under `Cc1nc(N2CCCCC2)c2[nH]c(-c3ccccc3Cl)cc2n1.Cl` (hydrate or solvate), 240 to 241.5 °C. For the molecule `c1ccc(-c2cc3nc(N4CCN(c5ccccc5)CC4)nc(N4CCCCC4)c3[nH]2)cc1` (as salt: hydrochloride) (hydrate or solvate), the melting point fell in the range of 267.5 to 270 °C. For `Cc1nc(N2CCCCC2)c2[nH]c(-c3ccc(F)c(F)c3)cc2n1.Cl` (hydrate or solvate) [Example 121, 6-(3,4-Difluorophenyl)-2-methyl-4-piperidylpyrrolo[3,2-d]pyrimidine Hydrochloride Hydrate], the melting point was in the range of 243 to 245 °C. The molecule `Cc1nc(N2CCCCC2)c2sc(-c3ccc(F)cc3)cc2n1` (as salt: hydrochloride) (hydrate or solvate) [Example 217, 6-(4-Fluorophenyl)-2-methyl-4-piperidylthiopheno[3,2-d]pyrimidine Hydrochloride Hydrate] returned a melting point of 285 to 287 °C. For the molecule `Cc1nc(N2CC=CC2)c2[nH]c(-c3cccc(C(F)(F)F)c3)cc2n1` (as salt: hydrochloride) (hydrate or solvate) [Example 197d, 2-Methyl-4-(3-pyrrolinyl)-6-[3-(trifluoromethyl)phenyl]pyrrolo[3,2-d]pyrimidine Hydrochloride Monohydrate], the melting point was more than 270 °C. For the molecule `Cc1nc(N2CCCCC2)c2[nH]c(-c3ccc(F)cc3)cc2n1.Cl`, the melting point is 287 to 289 °C (dec.). Under `Cc1nc(N2CCCCC2)c2[nH]c(-c3c(F)cccc3F)cc2n1.Cl` (hydrate or solvate) stands more than 280 °C. `Fc1ccc(-c2cc3nc(C4CC4)nc(N4CCCCC4)c3[nH]2)cc1` (as salt: hydrochloride) (hydrate or solvate) [Example 209c, 2-Cyclopropyl-6-(4-fluorophenyl)-4-piperidylpyrrolo[3,2-d]pyrimidine Hydrochloride Hydrate]: the melting point was more than 280 °C. Under `Cc1ccc2sc(-c3cc4nc(C)nc(N5CCCCC5)c4[nH]3)c(C)c2c1.Cl` (hydrate or solvate) stands more than 280 °C. In the case of `Cl.c1csc(-c2cc3ncnc(N4CCCCC4)c3[nH]2)c1`, the melting point was more than 280 °C. Molecule `Cc1nc(N2CCCCC2)c2[nH]c(-c3cc(F)ccc3F)cc2n1.Cl` (hydrate or solvate) gave a melting point of 279 to 281 °C. As for `Cc1nc(N2CCCCC2)c2[nH]c(-c3ccc(Cl)cc3)c(N3CCCC3)c2n1.Cl` (hydrate or solvate), the melting point was more than 280 °C. `Cc1cc(N2CCCCC2)c2oc(-c3ccccc3)cc2n1.Cl` had a melting point of more than 280 °C. Next, `Cc1nc(N2CCCCC2)c2[nH]c(-c3sc(C)nc3C)cc2n1.Cl` (hydrate or solvate): 272 to 273.5 °C. On to `Cc1nc(N2CCCCC2)c2[nH]c(COc3ccccc3)cc2n1.Cl`, for which the melting point is 238 to 239 °C.

`Cc1nc(N2CC=CC2)c2[nH]c(-c3ccccc3)cc2n1` (as salt: hydrochloride) (hydrate or solvate) [Example 61, 2-Methyl-6-phenyl-4-(pyrrolinyl)pyrrolo[3,2-d]pyrimidine Hydrochloride Monohydrate] gave a melting point of 278 to 278.3 °C. Under `Cc1nc(N2CCCCC2)c2[nH]c(-c3ccc(O)cc3)c(C)c2n1.Cl` (hydrate or solvate) [Example 137, 4-[2,7-Dimethyl-4-piperidylpyrrolo[4,5-d]pyrimidin-6-yl]phenol Hydrochloride Hydrate] stands more than 280 °C; under `Cc1nc(N2CCCCC2)c2[nH]c(-c3cc(C)sc3C)cc2n1.Cl` (hydrate or solvate), 240 to 241.5 °C. Next, `COc1ccc(Cc2cc3nc(C)nc(N4CCCCC4)c3[nH]2)cc1.Cl`: 263 to 267 °C; `Cc1nc(N2CCCCC2)c2[nH]c(-c3ccccc3C(F)(F)F)cc2n1.Cl` (hydrate or solvate): more than 280 °C; `Cc1nc(N2CCCCC2C)c2[nH]c(-c3ccc(F)cc3)cc2n1.Cl` (stereo not drawn) (hydrate or solvate): 274 to 276 °C. `Cc1nc(N2CCCCC2)c2sc(C(C)(C)C)cc2[n+]1[O-].Cl`: the melting point was 202 to 203 °C (dec.). `Cc1nc(N2CCc3ccccc32)c2[nH]c(-c3ccccc3)cc2n1` (as salt: hydrochloride) (hydrate or solvate) [Example 215, 4-Indolinyl-2-methyl-6-phenylpyrrolo[3,2-d]pyrimidine Hydrochloride Hydrate]: the melting point is more than 300 °C. Under `c1ccc(-c2cc3nc(N4CCCCC4)nc(N4CCCCC4)c3[nH]2)cc1` (as salt: hydrochloride) [Example 208, 6-Phenyl-2,4-dipiperidylpyrrolo[3,2-d]pyrimidine Hydrochloride] stands more than 272 °C. Turning to `Cc1nc(N2CCN(S(=O)(=O)c3cccc4ccccc34)CC2)c2[nH]c(-c3ccccc3)cc2n1.Cl` (hydrate or solvate), the melting point is 195 °C (dec.). As to `Cc1nc(N2CCCCC2)c2[nH]c(Cc3ccc(F)cc3)cc2n1.Cl`, the melting point was 254 to 255 °C.

Molecule `Cc1nc(N2CCCCC2)c2[nH]c(-c3cccc(O)c3)cc2n1.Cl` (hydrate or solvate) displayed a melting point of more than 280 °C. Under `Cc1nc(N2[C@H](C)CCC[C@@H]2C)c2[nH]c(-c3ccccc3)cc2n1` (as salt: hydrochloride) [Example 185, 4-((6S, 2R)-2,6-Dimethyl)-2-methyl-6-phenylpyrrolo[3,2-d]pyrimidine Hydrochloride] stands more than 270 °C; under `Cc1nc(N2CCCCC2)c2[nH]c(-c3ccc(Cl)c(Cl)c3Cl)cc2n1.Cl` (hydrate or solvate), 264 to 266 °C. Under `Cc1nc(N2CCCCC2)c2[nH]c(C)c(Cc3ccccc3)c2n1.Cl` (hydrate or solvate) stands > 240 °C (dec.); under `Cc1nc(N2CCCCC2)c2[nH]c(-c3ccc(N)cc3)cc2n1` (as salt: hydrochloride), more than 280 °C. Molecule `Cc1nc(N2CCCCC2)c2[nH]c(-c3cc(C)oc3C)cc2n1.Cl` (hydrate or solvate) [Example 108, 2,5-Dimethyl-3-(2-methyl-4-piperidylpyrrolo[4,5-d]pyrimidin-6-yl)furan Hydrochloride Monohydrate] showed a melting point of 238 to 240 °C.

On to `Cc1nc(N2CCCCC2)c2oc(-c3ccccc3)cc2n1` (as salt: hydrochloride) (hydrate or solvate), for which the melting point was more than 290 °C. As for `Cc1nc(N2CCCCC2)c2[nH]c(-c3cccc(F)c3)cc2n1.Cl` (hydrate or solvate) [Example 103, 6-(3-Fluorophenyl)-2-methyl-4-piperidylpyrrolo[3,2-d]pyrimidine Hydrochloride Monohydrate], the melting point is more than 285 °C.

Molecule `Cc1nc(N2CCCCC2)c2[nH]c(-c3cc4ccccc4s3)cc2n1.Cl` (hydrate or solvate) yielded a melting point of more than 280 °C. Molecule `Cc1nc(N2CCCCC2)c2[nH]c(-c3ccc4c(c3)OCCO4)cc2n1.Cl` (hydrate or solvate) [Example 125, 6-(2-Methyl-4-piperidylpyrrolo[4,5-d]pyrimidin-6-yl)-2H,3H-benzo[e]1,4-dioxane Hydrochloride Monohydrate] displayed a melting point of more than 280 °C. Molecule `Cc1c(-c2ccccc2)[nH]c2c(N3CCCCC3)ncnc12.Cl` came in with a melting point of 281 to 282.5 °C.
